According to patent US10150764B2, “Substituted benzene compounds” (Epizyme, Inc., priority 2013, dated 2018):

Experiments:
[1] = molecular target: EZH2 Y641F mutant (PRC2 enzyme) (Homo sapiens (Human), UniProt Q15910, Y641F); assay: PRC2 enzyme assay on peptide substrate, EZH2 Y641F mutant (H3K27me2 peptide, 3H-SAM Flashplate); type: biochemical; settings: Y641F mutant PRC2 4 nM
Description: (§1) Human PRC2 enzymes were purified as 4-component enzyme complexes co-expressed in Spodoptera frugiperda (sf9) cells using a baculovirus expression system. […] The EED subunit contained an N-terminal FLAG tag that was used to purify the entire 4-component complex from sf9 cell lysates.
(§2) The assays were all performed in a buffer consisting of 20 mM bicine (pH=7.6), 0.5 mM DTT, 0.005% BSG and 0.002% Tween20, prepared on the day of use. […] DMSO (1 μL) was added to columns 11, 12, 23, 24, rows A-H for the maximum signal control, and SAH, a known product and inhibitor of PRC2 (1 μL) was added to columns 11, 12, 23, 24, rows I-P for the minimum signal control. A cocktail (40 μL) containing the wild-type PRC2 enzyme and H3K27me0 peptide or any of the Y641 mutant enzymes and H3K27me2 peptide was added by Multidrop Combi (Thermo). The compounds were allowed to incubate with PRC2 for 30 min at 25° C., then a cocktail (10 μL) containing a mixture of non-radioactive and ^3H-SAM was added to initiate the reaction (final volume=51 μL). […] The assays were stopped by the addition of non-radioactive SAM (10 μL) to a final concentration of 600 μM, which dilutes the ^3H-SAM to a level where its incorporation into the peptide substrate is no longer detectable. 50 of the reaction in the 384-well polypropylene plate was then transferred to a 384-well Flashplate and the biotinylated peptides were allowed to bind to the streptavidin surface for at least 1 h before being washed three times with 0.1% Tween20 in a Biotek ELx405 plate washer. The plates were then read in a PerkinElmer TopCount platereader to measure the quantity of ^3H-labeled peptide bound to the Flashplate surface, measured as disintegrations per minute (dpm) or alternatively, referred to as counts per minute (cpm).

[2] = system: WSU-DLCL2 cells; assay: Cell proliferation analysis, WSU-DLCL2 (Cell Titer Glo); type: cell-based; settings: Homo sapiens, WSUDLCL2, 144 h, 6 days incubation, ATP readout
Description: Cell Proliferation Analysis
WSU-DLCL2 suspension cells were purchased from DSMZ (German Collection of Microorganisms and Cell Cultures, Braunschweig, Germany), RPMI/Glutamax Medium, Penicillin-Streptomycin, Heat Inactivated Fetal Bovine Serum were purchased from Life Technologies, Grand Island, N.Y., USA, V-bottom polypropylene 384-well plates were purchased from Greiner Bio-One, Monroe, N.C., USA. Cell culture 384-well white opaque plates were purchased from Perkin Elmer, Waltham, Mass., USA. Cell-Titer Glo® was purchased from Promega Corporation, Madison, Wis., USA. SpectraMax M5 plate reader was purchased from Molecular Devices LLC, Sunnyvale, Calif., USA.
WSU-DLCL2 suspension cells were maintained in growth medium (RPMI 1640 supplemented with 10% v/v heat inactivated fetal bovine serum and cultured at 37° C. under 5% CO2. Under assay conditions, cells were incubated in Assay Medium (RPMI 1640 supplemented with 20% v/v heat inactivated fetal bovine serum and 100 units/mL penicillin-streptomycin) at 37° C. under 5% CO2.
For the assessment of the effect of compounds on the proliferation of the WSU-DLCL2 cell line, exponentially growing cells were plated in 384-well white opaque plates at a density of 1250 cell/ml in a final volume of 50 μl of assay medium. A compound source plate was prepared by performing triplicate nine-point 3-fold serial dilutions in DMSO, beginning at 10 mM (final top concentration of compound in the assay was 20 μM and the DMSO was 0.2%). A 100 nL aliquot from the compound stock plate was added to its respective well in the cell plate. […] After addition of compounds, assay plates were incubated for 6 days at 37° C., 5% CO2, relative humidity >90% for 6 days. Cell viability was measured by quantization of ATP present in the cell cultures, adding 35 μl of Cell Titer Glo® reagent to the cell plates. Luminescence was read in the SpectraMax M5. The concentration inhibiting cell viability by 50% was determined using a 4-parametric fit of the normalized dose response curves.

[3] = molecular target: wild-type EZH2 (PRC2 enzyme) (Homo sapiens (Human), UniProt Q15910); assay: PRC2 enzyme assay on peptide substrate, wild-type EZH2 (H3K27me0 peptide, 3H-SAM Flashplate); type: biochemical; settings: wild-type PRC2 4 nM, read-out: WT EZH2 IC50
wild-type EZH2 (PRC2 enzyme), sequence (Q15910 whole entry): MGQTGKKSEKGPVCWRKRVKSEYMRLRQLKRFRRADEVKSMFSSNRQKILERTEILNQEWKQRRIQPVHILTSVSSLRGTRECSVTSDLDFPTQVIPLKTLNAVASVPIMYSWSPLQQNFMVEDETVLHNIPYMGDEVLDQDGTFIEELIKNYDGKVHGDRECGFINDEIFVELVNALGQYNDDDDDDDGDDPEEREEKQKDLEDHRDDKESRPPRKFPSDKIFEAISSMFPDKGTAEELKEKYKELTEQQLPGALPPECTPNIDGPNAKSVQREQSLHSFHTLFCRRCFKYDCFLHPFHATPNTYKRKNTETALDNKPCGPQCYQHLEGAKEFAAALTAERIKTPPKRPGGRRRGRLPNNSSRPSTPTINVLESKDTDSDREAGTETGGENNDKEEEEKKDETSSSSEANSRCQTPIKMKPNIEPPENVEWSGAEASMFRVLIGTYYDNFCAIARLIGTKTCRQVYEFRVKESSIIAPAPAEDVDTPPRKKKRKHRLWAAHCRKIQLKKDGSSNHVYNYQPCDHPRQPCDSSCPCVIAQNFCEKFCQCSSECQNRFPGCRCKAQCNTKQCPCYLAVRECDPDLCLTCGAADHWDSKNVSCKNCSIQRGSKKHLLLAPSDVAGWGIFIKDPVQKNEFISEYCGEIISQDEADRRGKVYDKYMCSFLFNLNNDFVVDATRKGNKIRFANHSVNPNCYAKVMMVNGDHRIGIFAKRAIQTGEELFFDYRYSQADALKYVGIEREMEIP
wild-type EZH2 (PRC2 enzyme), sequence (O75530 whole entry partner): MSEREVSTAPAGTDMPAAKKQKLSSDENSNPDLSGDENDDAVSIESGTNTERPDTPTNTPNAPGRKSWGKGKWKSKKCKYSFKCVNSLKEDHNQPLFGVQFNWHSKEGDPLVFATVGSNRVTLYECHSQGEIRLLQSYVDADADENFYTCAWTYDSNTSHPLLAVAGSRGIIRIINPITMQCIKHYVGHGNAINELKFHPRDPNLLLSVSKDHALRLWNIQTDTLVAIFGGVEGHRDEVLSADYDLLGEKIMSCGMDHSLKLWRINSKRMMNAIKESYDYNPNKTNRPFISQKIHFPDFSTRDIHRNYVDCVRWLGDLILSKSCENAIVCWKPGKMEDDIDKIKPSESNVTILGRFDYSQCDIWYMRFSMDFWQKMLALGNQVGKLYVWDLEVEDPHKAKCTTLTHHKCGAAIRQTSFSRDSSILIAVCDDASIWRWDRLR
wild-type EZH2 (PRC2 enzyme), sequence (Q15022 whole entry partner): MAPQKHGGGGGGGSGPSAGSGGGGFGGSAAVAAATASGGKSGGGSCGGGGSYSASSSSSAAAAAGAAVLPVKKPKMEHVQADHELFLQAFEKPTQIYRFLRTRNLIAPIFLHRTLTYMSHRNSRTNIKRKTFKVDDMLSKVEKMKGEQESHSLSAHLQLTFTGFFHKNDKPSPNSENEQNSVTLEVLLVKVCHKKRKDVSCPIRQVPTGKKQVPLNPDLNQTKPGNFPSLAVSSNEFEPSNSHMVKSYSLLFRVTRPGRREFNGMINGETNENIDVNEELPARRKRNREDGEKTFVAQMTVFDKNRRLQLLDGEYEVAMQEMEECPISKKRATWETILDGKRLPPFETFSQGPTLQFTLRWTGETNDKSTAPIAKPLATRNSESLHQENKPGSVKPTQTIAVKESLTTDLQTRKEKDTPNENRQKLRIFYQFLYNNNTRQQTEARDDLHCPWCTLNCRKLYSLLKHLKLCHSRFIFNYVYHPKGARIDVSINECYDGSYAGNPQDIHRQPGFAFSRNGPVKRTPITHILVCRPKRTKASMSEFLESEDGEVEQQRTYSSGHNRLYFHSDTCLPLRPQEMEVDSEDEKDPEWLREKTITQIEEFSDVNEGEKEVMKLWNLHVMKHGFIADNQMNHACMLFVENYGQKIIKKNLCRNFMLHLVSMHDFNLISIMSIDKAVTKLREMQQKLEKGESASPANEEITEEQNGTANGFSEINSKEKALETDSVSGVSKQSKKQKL
wild-type EZH2 (PRC2 enzyme), sequence (Q09028 whole entry partner): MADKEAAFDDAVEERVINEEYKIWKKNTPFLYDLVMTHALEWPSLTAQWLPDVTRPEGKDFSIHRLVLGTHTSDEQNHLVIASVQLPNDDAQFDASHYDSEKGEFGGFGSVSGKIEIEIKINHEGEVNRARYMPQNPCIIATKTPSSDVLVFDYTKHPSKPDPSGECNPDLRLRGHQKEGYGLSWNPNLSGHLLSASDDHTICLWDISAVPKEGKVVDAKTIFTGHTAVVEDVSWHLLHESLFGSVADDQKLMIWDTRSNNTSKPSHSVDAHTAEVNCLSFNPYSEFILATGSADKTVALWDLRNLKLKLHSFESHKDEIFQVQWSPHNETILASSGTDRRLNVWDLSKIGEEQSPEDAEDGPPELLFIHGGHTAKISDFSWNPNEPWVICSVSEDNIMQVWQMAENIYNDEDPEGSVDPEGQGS
Description: as §1, §2

[4] = system: H3K27me3 in WSU-DLCL2 cells; assay: WSU-DLCL2 methylation assay (H3K27me3 ELISA); type: cell-based, human; settings: H3K27me3 normalised to total H3
Description: WSU-DLCL2 Methylation Assay
WSU-DLCL2 suspension cells were purchased from DSMZ (German Collection of Microorganisms and Cell Cultures, Braunschweig, Germany). RPMI/Glutamax Medium, Penicillin-Streptomycin, Heat Inactivated Fetal Bovine Serum, and D-PBS were purchased from Life Technologies, Grand Island, N.Y., USA. Extraction Buffer and Neutralization Buffer (5×) were purchased from Active Motif, Carlsbad, Calif., USA. Rabbit anti-Histone H3 antibody was purchased from Abcam, Cambridge, Mass., USA. Rabbit anti-H3K27me3 and HRP-conjugated anti-rabbit-IgG were purchased from Cell Signaling Technology, Danvers, Mass., USA. TMB “Super Sensitive” substrate was sourced from BioFX Laboratories, Owings Mills, Md., USA. IgG-free Bovine Serum Albumin was purchased from Jackson ImmunoResearch, West Grove, Pa., USA. PBS with Tween (10×PBST) was purchased from KPL, Gaithersburg, Md., USA. Sulfuric Acid was purchased from Ricca Chemical, Arlington, Tex., USA. Immulon ELISA plates were purchased from Thermo, Rochester, N.Y., USA. V-bottom cell culture plates were purchased from Corning Inc., Corning, N.Y., USA. V-bottom polypropylene plates were purchased from Greiner Bio-One, Monroe, N.C., USA.
WSU-DLCL2 suspension cells were maintained in growth medium (RPMI 1640 supplemented with 10% v/v heat inactivated fetal bovine serum and 100 units/mL penicillin-streptomycin) and cultured at 37° C. under 5% CO2. Under assay conditions, cells were incubated in Assay Medium (RPMI 1640 supplemented with 20% v/v heat inactivated fetal bovine serum and 100 units/mL penicillin-streptomycin) at 37° C. under 5% CO2 on a plate shaker.
WSU-DLCL2 cells were seeded in assay medium at a concentration of 50,000 cells per mL to a 96-well V-bottom cell culture plate with 200 μL per well. […] Plates were incubated on a titer-plate shaker at 37° C., 5% CO2 for 96 hours. After four days of incubation, plates were spun at 241×g for five minutes and medium was aspirated gently from each well of cell plate without disturbing cell pellet. Pellet was resuspended in: 200 μL DPBS and plates were spun again at 241×g for five minutes. The supernatant was aspirated and cold (4° C.) Extraction buffer (100 μL) was added per well. Plates were incubated at 4° C. on orbital shaker for two hours. Plates were spun at 3427×g×10 minutes. Supernatant (80 μL per well) was transferred to its respective well in 96 well V-bottom polypropylene plate. Neutralization Buffer 5× (20 μL per well) was added to V-bottom polypropylene plate containing supernatant. V-bottom polypropylene plates containing crude histone preparation (CHP) were incubated on orbital shaker×five minutes. Crude Histone Preparations were added (2 μL per well) to each respective well into duplicate 96 well ELISA plates containing 100 μL Coating Buffer (1×PBS+BSA 0.05% w/v). Plates were sealed and incubated overnight at 4° C. The following day, plates were washed three times with 300 μL per well 1×PBST. […] For H3K27me3 detection, 100 μL of HRP conjugated anti-rabbit IgG antibody diluted to 1:4000 in ELISA diluent was added per well. Plates were incubated at room temperature for 90 minutes. […] TMB substrate 100 μL was added per well. Histone H3 plates were incubated for five minutes at room temperature. H3K27me3 plates were incubated for 10 minutes at room temperature. The reaction was stopped with sulfuric acid 1N (100 μL per well). Absorbance for each plate was read at 450 nm.
Each plate included eight control wells DMSO only treatment (Minimum Inhibition) as well as eight control wells for maximum inhibition (Background wells).
The average of the ratio values for each control type was calculated and used to determine the percent inhibition for each test well in the plate. Test compound was serially diluted three-fold in DMSO for a total of ten test concentrations, beginning at 25 μM.

[5] = Homo sapiens, WSUDLCL2, 96 hours incubation

EZH2 Y641F mutant (PRC2 enzyme), sequence (Q15910 whole entry Y641F): as the sequence (Q15910 whole entry) above, with Y641F counted along it
EZH2 Y641F mutant (PRC2 enzyme), sequence (O75530 whole entry partner): as the sequence (O75530 whole entry partner) above
EZH2 Y641F mutant (PRC2 enzyme), sequence (Q15022 whole entry partner): as the sequence (Q15022 whole entry partner) above
EZH2 Y641F mutant (PRC2 enzyme), sequence (Q09028 whole entry partner): as the sequence (Q09028 whole entry partner) above

Row | Compound | IC50 [1] [nM] | IC50 [2] [nM] | IC50 [3] [nM] | IC50 [4, 5] [nM] | IC50 ([4]; 96 hours incubation) [nM]
1 | CCOc1n[nH]c(C)c1CNC(=O)c1cc(Cl)cc(N(CC)[C@H]2CC[C@H](N(C)C)CC2)c1C [Compound 85, 5-chloro-3-(((trans)-4-(dimethylamino)cyclohexyl)(ethyl)amino)-N-((3-ethoxy-5-methyl-1H-pyrazol-4-yl)methyl)-2-methylbenzamide] | 7520 | 6380 | 35200 | > 50000 | 
2 | CCN(c1cc(Cl)cc(C(=O)NCc2c(OC)n(C)[nH]c2=O)c1C)[C@H]1CC[C@H](N(C)C)CC1 [Compound 86, 5-chloro-3-(ethyl((trans)-4-(dimethylamino)cyclohexyl]amino)-N-((5-methoxy-1-methyl-3-oxo-2,3-dihydro-1H-pyrazol-4-yl)methyl)-2-methylbenzamide] | 1 | 1130 | 21 | 1790 | 
3 | CCn1nc(OC)c(CNC(=O)c2cc(Cl)cc(N(CC)[C@H]3CC[C@H](N(C)Cc4ccc(OC)cc4)CC3)c2C)c1C [Compound 70, 5-chloro-3-(ethyl((trans)-4-((4-methoxybenzyl)-(methyl)-amino)-cyclohexyl)-amino)-N-((1-ethyl-3-methoxy-5-methyl-1H-pyrazol-4-yl)methyl)-2-methylbenzamide] | 12 | 3610 | 39 | 4060 | 
4 | CCN(c1cc(Cl)cc(C(=O)NCc2c(N3CCCCC3)n(C)[nH]c2=O)c1C)[C@H]1CC[C@H](N(C)C)CC1 [Compound 93, 5-chloro-3-(ethyl[(trans)-4-(dimethylamino)cyclohexyl]amino)-2-methyl-N-([1-methyl-3-oxo-5-(piperidin-1-yl)-2,3-dihydro-1H-pyrazol-4-yl]methyl)benzamide] | 14.4 |  | 9.71 | 3550 | 
5 | CCN(c1cc(-c2ccc(OCCOC)cc2)cc(C(=O)NCc2c(C)[nH][nH]c2=O)c1C)[C@H]1CC[C@H](N(C)C)CC1 [Compound 30, 5-(((trans)-4-(dimethylamino)cyclohexyl)(ethyl)amino)-4′-(2-methoxyethoxy)-4-methyl-N-((5-methyl-3-oxo-2,3-dihydro-1H-pyrazol-4-yl)methyl)-[1,1′-biphenyl]-3-carboxamide] | 7 |  | 24 | 29000 | 
6 | CCCN(c1cc(-c2ccc(OCCOC)cc2)cc(C(=O)NCc2c(C)n(C)[nH]c2=O)c1C)[C@H]1CC[C@H](N(C)C)CC1 [Compound 58, N-((1,5-dimethyl-3-oxo-2,3-dihydro-1H-pyrazol-4-yl)methyl)-5-(((trans)-4-(dimethylamino)cyclohexyl)(propyl)amino)-4′-(2-methoxyethoxy)-4-methyl-[1,1′-biphenyl]-3-carboxamide] | 342 | 14300 | 1540 |  | 
7 | 5-chloro-3-(ethyl((trans)-4-((4-methoxybenzyl)(methyl)amino) cyclohexyl)amino)-2-methyl-N-((1-methyl-3-oxo-5-(piperidin-1-yl)-2,3-dihydro-1H-pyrazol-4-yl)methyl)benzamide [Compound 84] | 1220 |  | 1440 |  | 16700
8 | CCN(c1cc(Cl)cc(C(=O)NCc2c(C)n(C)[nH]c2=O)c1C)[C@H]1CC[C@H](N(C)CCOC)CC1 [Compound 55, 5-chloro-N-((1,5-dimethyl-3-oxo-2,3-dihydro-1H-pyrazol-4-yl)methyl)-3-(ethyl((trans)-4-((2-methoxyethyl)(methyl)amino)cyclohexyl)amino)-2-methylbenzamide] | 418 |  | 695 | 30600 | 
9 | CCN(c1cc(-c2ccc(CN3CCOCC3)cc2)cc(C(=O)NCc2c(C)[nH]n(C)c2=O)c1C)C1CCOCC1 [Compound 46, N-((2,5-dimethyl-3-oxo-2,3-dihydro-1H-pyrazol-4-yl)methyl)-5-(ethyl(tetrahydro-2H-pyran-4-yl)amino)-4-methyl-4′-(morpholinomethyl)-[1,1′-biphenyl]-3-carboxamide] |  |  |  | > 50000 | 
10 | CCN(c1cc(Cl)cc(C(=O)NCc2c(C)[nH]n(C)c2=O)c1C)[C@@H]1COC[C@H]1OC (relative stereo) [Compound 42, 5-chloro-N-((2,5-dimethyl-3-oxo-2,3-dihydro-1H-pyrazol-4-yl)methyl)-3-(ethyl((trans)-4-methoxytetrahydrofuran-3-yl)amino)-2-methylbenzamide] |  | > 20000 | > 50000 |  | 
11 | CCN(c1cc(Cl)cc(C(=O)NCc2c(C)[nH]n(C)c2=O)c1C)[C@@H]1COC[C@H]1O (relative stereo) [Compound 41, 5-chloro-N-((2,5-dimethyl-3-oxo-2,3-dihydro-1H-pyrazol-4-yl)methyl)-3-(ethyl((trans)-4-hydroxytetrahydrofuran-3-yl)amino)-2-methylbenzamide] | 26200 |  | 37200 | > 50000 | 
12 | CCN(c1cc(Cl)cc(C(=O)NCc2c(CCN(C)C)cc3n(c2=O)NCC3)c1C)[C@H]1CC[C@H](N(C)C)CC1 [Compound 1, 5-chloro-3-(((trans)-4-(dimethylamino)cyclohexyl)(ethyl)amino)-N-((5-(2-(dimethylamino)ethyl)-7-oxo-1,2,3,7-tetrahydropyrazolo[1,5-a]pyridin-6-yl)methyl)-2-methylbenzamide] |  | 850 |  |  | 
13 | CCN(c1cc(-c2ccc(OCCOC)cc2)cc(C(=O)NCc2c(C)n(C)[nH]c2=O)c1C)[C@H]1CC[C@H](N(C)CCOC)CC1 [Compound 60, N-((1,5-dimethyl-3-oxo-2,3-dihydro-1H-pyrazol-4-yl)methyl)-5-(ethyl((trans)-4-((2-methoxyethyl)(methyl)amino)cyclohexyl)amino)-4′-(2-methoxyethoxy)-4-methyl-[1,1′-biphenyl]-3-carboxamide] | 695 | 13500 | 2110 |  | 
14 | CCN(c1cc(-c2ccc(OCCOC)cc2)cc(C(=O)NCc2c(C)n(C)[nH]c2=O)c1C)[C@H]1CC[C@H](N(C)C)CC1 [Compound 59, N-((1,5-dimethyl-3-oxo-2,3-dihydro-1H-pyrazol-4-yl)methyl)-5-(((trans)-4-(dimethylamino)cyclohexyl)(ethyl)amino)-4′-(2-methoxyethoxy)-4-methyl-[1,1′-biphenyl]-3-carboxamide] |  | > 20000 |  | > 50000 | 
15 | CCn1nc(OC)c(CNC(=O)c2cc(Cl)cc(N(CC)[C@H]3CC[C@H](N(C)Cc4cccc(OC)c4)CC3)c2C)c1C [Compound 62, 5-chloro-3-(ethyl((trans)-4-((3-methoxybenzyl)-(methyl)-amino)-cyclohexyl)-amino)-N-((1-ethyl-3-methoxy-5-methyl-1H-pyrazol-4-yl)methyl)-2-methylbenzamide] | 193 |  | 745 | > 50000 | 
16 | CCN(c1cc(Cl)cc(C(=O)NCc2c(C)nn(C)c2OC)c1C)[C@H]1CC[C@H](N(C)C)CC1 [Compound 91, 5-chloro-N-((5-methoxy-1,3-dimethyl-1H-pyrazol-4-yl)methyl)-3-(((trans)-4-(dimethylamino)cyclohexyl)(ethyl)amino)-2-methylbenzamide] | 1170 |  | 7450 | > 50000 | 
17 | CCN(c1cc(Cl)cc(C(=O)NCc2c(=O)[nH]n3cccnc23)c1C)[C@H]1CC[C@H](N(C)C)CC1 [Compound 51, 5-chloro-3-(((trans)-4-(dimethylamino)cyclohexyl)(ethyl)amino)-2-methyl-N-((2-oxo-1,2-dihydropyrazolo-[1,5-a]-pyrimidin-3-yl)methyl)benzamide] | 573 | > 20000 | 2870 |  | 
18 | CCN(c1cc(-c2ccc(N3CCNCC3)nc2)cc(C(=O)NCc2c(C)[nH]n(C)c2=O)c1C)C1CCOCC1 [Compound 47, N-((2,5-dimethyl-3-oxo-2,3-dihydro-1H-pyrazol-4-yl)methyl)-3-(ethyl(tetrahydro-2H-pyran-4-yl)amino)-2-methyl-5-(6-(piperazin-1-yl)pyridin-3-yl)benzamide] |  |  |  | > 50000 | 
19 | CCN(c1cc(Cl)cc(C(=O)NCc2c(OC)nn(C)c2C)c1C)[C@H]1CC[C@H](N(C)C(C)c2cccnc2)CC1 (stereo partly drawn) [Compound 72, 5-chloro-3-(ethyl((trans)-4-(methyl(1-(pyridin-3-yl)ethyl)amino)cyclohexyl)amino)-N-((3-methoxy-1,5-dimethyl-1H-pyrazol-4-yl)methyl)-2-methylbenzamide] | 5680 |  | > 50000 |  | 
